Laboratory results published in patent US20250250265A1, “BENZOTHIAZOLE-PHENYLSULFONYL-PIPERIDINE ANALOGS AS ACTIVATORS OF NACYLPHOSPHATIDYLETHANOLAMINE HYDROLYZING PHOSPHOLIPASE D” (priority 2022, published 2025).
Entries after “also recorded” stand apart in the source; their conditions may differ.

How the values were obtained:
[1] = target: T1, soluble epoxide hydrolase (sEH) (Homo sapiens, UniProt P34913); test: sEH activity assay (Cayman Chemicals); format: biochemical; conditions: for inhibition at 33 µM: 33 μM compound, compared to vehicle (0%); for Remaining sEH Activity (33 μM): Table 3; for inhibition of sEH activity: graded concentrations
T1 construct: purchased Cayman Chemicals
T1 sequence (P34913 1-555): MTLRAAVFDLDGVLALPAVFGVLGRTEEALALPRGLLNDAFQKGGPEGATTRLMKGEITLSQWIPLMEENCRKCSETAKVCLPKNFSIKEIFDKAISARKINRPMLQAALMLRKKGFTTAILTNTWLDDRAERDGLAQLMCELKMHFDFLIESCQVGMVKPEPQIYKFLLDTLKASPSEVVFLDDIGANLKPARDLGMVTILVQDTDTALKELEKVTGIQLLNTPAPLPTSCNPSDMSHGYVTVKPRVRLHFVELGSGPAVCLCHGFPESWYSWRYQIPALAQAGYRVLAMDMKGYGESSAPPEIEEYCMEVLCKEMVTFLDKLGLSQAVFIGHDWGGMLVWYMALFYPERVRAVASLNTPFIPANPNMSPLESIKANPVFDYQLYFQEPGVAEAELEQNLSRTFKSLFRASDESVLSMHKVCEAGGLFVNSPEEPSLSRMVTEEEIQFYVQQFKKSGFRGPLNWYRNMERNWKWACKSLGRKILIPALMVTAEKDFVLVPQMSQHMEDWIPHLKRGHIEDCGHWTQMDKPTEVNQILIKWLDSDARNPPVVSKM
Method: Concentration response curves were plotted for VU534 for the enzymes fatty acid amide hydrolase (FAAH) and soluble epoxide hydrolase (sEH).
The fluorescence interference assay was performed using the same method as the HTS assay, but with BODIPY-FL C5 (Thermo Fisher Scientific) used in place of PED-A1. sEH and FAAH activity assays were performed according to the manufacturer's specifications (Cayman Chemicals).

[2] = target: T2, NAPE-PLD activity of RAW264.7 macrophages (Mus musculus, UniProt Q8BH82); test: Cell-based NAPE-PLD activity in RAW264.7 macrophages (PED-A1 with orlistat); conditions: for 10 μM Mϕ % NAPE-PLD activity: Table 2, 10 μM compound, vehicle = 100%; for In-cell NAPE-PLD activity in RAW 264.7 (10 μM) with PED-A1 or flame-NAPE as substrate: Table 3; for effect on NAPE-PLD activity in RAW264.7 cells: graded concentrations (FIG. 17A); for Emax, Nape-pld activity in RAW264.7 cells: FIG. 17A, PED-A1
T2 construct: endogenous in cells; host or cells: RAW264.7
T2 sequence (Q8BH82 1-396): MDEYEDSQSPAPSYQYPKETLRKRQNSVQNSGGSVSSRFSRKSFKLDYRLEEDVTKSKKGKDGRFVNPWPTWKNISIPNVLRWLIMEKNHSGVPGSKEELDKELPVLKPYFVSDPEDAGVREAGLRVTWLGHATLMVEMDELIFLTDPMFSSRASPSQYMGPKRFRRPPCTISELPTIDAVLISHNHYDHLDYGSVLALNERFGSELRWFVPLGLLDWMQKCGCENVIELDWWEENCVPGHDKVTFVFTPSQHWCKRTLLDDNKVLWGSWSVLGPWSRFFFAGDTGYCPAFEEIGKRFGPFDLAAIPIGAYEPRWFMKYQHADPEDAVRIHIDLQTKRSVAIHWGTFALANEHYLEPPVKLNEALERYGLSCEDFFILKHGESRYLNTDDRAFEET
Method: (§1) NAPE-PLD activity was measured in cells as previously described, except that FluoroBrite DMEM (Gibco A1896701) was used as media. See Zarrow et al., J. Lipid Res. 63(1): 100156 (2022). For RAW264.7 assays, PED-A1 (3.6 μM final) was used as the substrate with 10 μM orlistat added to inhibit PLA1 activity, while for HepG2 cells, flame-NAPE was used (with no orlistat added).

[3] = test system: HepG2 human hepatocytoma cells; test: Cytotoxicity (MTT) in HepG2 cells; format: cell-based; conditions: for % HepG2 viability (33 μM): Table 3; for cytotoxicity in HepG2 cells: up to / at 30 μM
Method: Cytotoxicity was measured using MTT as previously described except that the studies used 96-well plates with 100 μL of 0.3 mg/mL MTT solution was added after 24 h of treatment and then replaced after 3 h with 0.1 M HCl in isopropanol. See Aggarwal et al., J. Biol. Chem. 295(21): 7289-7300 (2020). Viability was expressed as percent absorbance at 560 nm relative to vehicle controls.

[4] = target: T3, NAPE-PLD activity of HepG2 cells (Homo sapiens, UniProt Q6IQ20); test: Cell-based NAPE-PLD activity in HepG2 cells (flame-NAPE); conditions: for In-cell NAPE-PLD activity in HepG2 (10 μM) with PED-A1 or flame-NAPE as substrate: Table 3; for Emax / EC50: HepG2 cells; for Emax: % maximal induced activity (Table 2, Example 7); for EC50: flame-NAPE (Table 2, Example 7); for effect on NAPE-PLD activity in HepG2 cells: graded concentrations
T3 construct: endogenous in cells; host or cells: HepG2
T3 sequence (Q6IQ20 whole entry): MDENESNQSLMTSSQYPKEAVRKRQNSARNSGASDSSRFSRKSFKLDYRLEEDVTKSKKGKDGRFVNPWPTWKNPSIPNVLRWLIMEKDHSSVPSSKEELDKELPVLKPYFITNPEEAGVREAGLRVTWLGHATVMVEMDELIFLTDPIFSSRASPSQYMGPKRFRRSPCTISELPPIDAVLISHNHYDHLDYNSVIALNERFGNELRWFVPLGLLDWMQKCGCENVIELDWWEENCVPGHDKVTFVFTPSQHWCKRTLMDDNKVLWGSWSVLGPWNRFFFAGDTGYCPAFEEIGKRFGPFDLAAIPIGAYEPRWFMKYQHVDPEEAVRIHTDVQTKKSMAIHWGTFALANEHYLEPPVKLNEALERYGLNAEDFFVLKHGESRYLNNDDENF
Method: In vitro models of the hepatic steatosis of non-alcoholic fatty liver disease (NAFLD) are well-established, with the primary method being incubation of primary human hepatocytes or hepatocyte cell lines such as HepG2, HuH7, HepaRG, with oleic acid and palmitic acid for 24 to 48 h, then measuring the resulting steatosis, lipid peroxidation, apoptosis, and inflammatory gene expression. Using flame-NAPE to measure NAPE-PLD activity in the human hepatoma HepG2 cell line, the experimental data confirmed that VU534 activated NAPE-PLD in human cells (AC50 940 nM; max % bA 155%). Bithionol (10 μM) reduced HepG2 flame-NAPE hydrolysis by >67%.
as §1

| Structure (SMILES) | inhibition at 33 µM [1] | 10 μM Mϕ % NAPE-PLD activity [2] | % HepG2 viability (33 μM) [3] | Remaining sEH Activity (33 μM) [1] | In-cell NAPE-PLD activity in HepG2 (10 μM) with PED-A1 or flame-NAPE as substrate [4] | In-cell NAPE-PLD activity in RAW 264.7 (10 μM) with PED-A1 or flame-NAPE as substrate [2] | other results |
| --- | --- | --- | --- | --- | --- | --- | --- |
| Cc1cccc2sc(NC(=O)C3CCN(S(=O)(=O)c4ccc(F)c(Cl)c4)CC3)nc12 [MRJ-058B] | 50% | 135% | – | – | – | – | – |
| Cc1cccc2sc(NC(=O)C3CCN(S(=O)(=O)c4cccnc4)CC3)nc12 [MRJ-058C] | 50% | 115% | – | – | – | – | – |
| Cc1cccc2sc(NC(=O)C3CCN(S(=O)(=O)c4cnn(C)c4)CC3)nc12 [MRJ-058D] | 20% | 100% | – | – | – | – | – |
| O=C(Nc1nc2ccccc2s1)C1CCN(S(=O)(=O)c2cccnc2)CC1 [VU203] | – | – | 41% | 59% | 122% | – | – |
| Cc1cccc2sc(NC(=O)C3CCN(S(=O)(=O)c4ccc(F)c(Cl)c4)CC3)nc12 [VU209] | – | – | 73% | 62% | 206% | 136% | – |
| Cc1cccc2sc(NC(=O)C3CCN(S(=O)(=O)c4cnn(C)c4)CC3)nc12 [VU210] | – | – | 67% | 81% | 124% | 98% | – |
| Cc1cccc2sc(NC(=O)C3CCN(S(=O)(=O)c4cccnc4)CC3)nc12 [VU211] | – | – | 72% | 48% | 148% | 114% | – |
| Cn1cc(S(=O)(=O)N2CCC(C(=O)Nc3nc4ccccc4s3)CC2)cn1 [VU227] | – | – | 66% | 63% | 125% | 102% | – |
| O=C(Nc1nc2ccccc2s1)C1CCN(S(=O)(=O)c2ccc(F)c(Cl)c2)CC1 [VU233] | – | – | 69% | 117% | 130% | – | cytotoxicity in HepG2 cells [3]: no cytotoxicity; inhibition of sEH activity [1]: neither VU533 nor VU233 significantly inhibited seH; EC50, NAPE-PLD activity of HepG2 cells ([4]; FIG. 18B, flame-NAPE): not calculable; effect on NAPE-PLD activity in RAW264.7 cells [2]: no significant effect; also recorded: not significant |
| Cc1ccc2nc(NC(=O)C3CCN(S(=O)(=O)c4ccc(F)cc4)CC3)sc2c1 [VU486] | 40% | 105% | – | 60% | – | 107% | – |
| Cc1ccc2sc(NC(=O)C3CCN(S(=O)(=O)c4ccc(F)cc4)CC3)nc2c1C [VU517] | 70% | 125% | – | 29% | – | 123% | Emax [4]: 185%; EC50 [4]: 8900 nM; effect on NAPE-PLD activity in HepG2 cells ([4]; flame-NAPE): enhances NAPE-PLD activity |
| Cc1ccc(C)c2sc(NC(=O)C3CCN(S(=O)(=O)c4ccc(F)cc4)CC3)nc12 [VU533] | – | – | – | – | – | – | cytotoxicity in HepG2 cells [3]: no cytotoxicity; inhibition of sEH activity [1]: neither VU533 nor VU233 significantly inhibited seH; Emax, NAPE-PLD activity of HepG2 cells ([4]; FIG. 18B, flame-NAPE): 1.6 fold; effect on NAPE-PLD activity in HepG2 cells ([4]; flame-NAPE): increased NAPE-PLD activity; Emax, Nape-pld activity in RAW264.7 cells [2]: 2.2 fold; effect on NAPE-PLD activity in RAW264.7 cells [2]: significantly increased NAPE-PLD activity |
| Cc1cc(C)c2sc(NC(=O)C3CCN(S(=O)(=O)c4ccc(F)cc4)CC3)nc2c1 [VU534, N-(5,7-Dimethylbenzo[d]thiazol-2-yl)-1-((4-fluorophenyl)sulfonyl)piperidine-4-carboxamide] | 75% | 140% | 91% | 27% | 211% | 139% | cytotoxicity in HepG2 cells [3]: minimal cytotoxicity; inhibition of sEH activity [1]: inhibition of sEH; also recorded: modest inhibition; also recorded: inhibits; Emax, NAPE-PLD activity of HepG2 cells ([4]; FIG. 18B, flame-NAPE): 1.6 fold; AC50 ([4]; HepG2, flame-NAPE (Example 7)): 940 nM; max % bA in HepG2 cells ([4]; HepG2, flame-NAPE (Example 7)): 155%; Emax [4]: 145%; EC50 [4]: 2400 nM; effect on NAPE-PLD activity in HepG2 cells ([4]; flame-NAPE): increased NAPE-PLD activity; also recorded: enhances NAPE-PLD activity; Emax, Nape-pld activity in RAW264.7 cells [2]: 1.6 fold; effect on NAPE-PLD activity in RAW264.7 cells [2]: significantly increased NAPE-PLD activity |
| Cc1cc2nc(NC(=O)C3CCN(S(=O)(=O)c4ccc(F)cc4)CC3)sc2cc1C [VU536] | 50% | 155% | – | 49% | – | 155% | – |
| Cc1ccc(S(=O)(=O)N2CCC(C(=O)Nc3nc4c(C)cc(C)cc4s3)CC2)cc1 [VU575] | 45% | 105% | – | 55% | – | 107% | Emax [4]: 145%; EC50 [4]: 3100 nM; effect on NAPE-PLD activity in HepG2 cells ([4]; flame-NAPE): enhances NAPE-PLD activity |
